From PubChem BioAssay AID194 (DTP/NCI, 2004)
Several values for one entry are separate records, joined by “and”; a condition that tells them apart may be missing. Equal values may be shown once. Results filed as inconclusive are left out. How the source made its calls: active means survival T/C of 150% or more; inactive means T/C below 125% in these data.

System: BDF1 mice, B16 melanoma s.c., survival/tumor T/C
Experiment: NCI In Vivo Anticancer Drug Screen. Data for tumor model B16 Melanoma (subcutaneous) in B6D2F1 (BDF1) mice
Experimental: The antitumor activity of compounds was measured in mice bearing transplantable tumors. Survival or tumor size were measured and the results are expressed as the measurement made in the treated group (T) divided by the measurement made in the vehicle treated control group (C). The tumor model used in this assay is B16 Melanoma (subcutaneous) in B6D2F1 (BDF1) mice

Measured: T/C

CC(=O)NNC(=O)c1ccccn1
inactive: endpoint: median survival time, dose: 6.25 mg/kg/injection, schedule: Q01DX009 (ip), vehicle: Klucel (hydroxypropylcellulose) (HPC), higher = longer survival 102 % of control | endpoint: median survival time, dose: 12.5 mg/kg/injection, schedule: Q01DX009 (ip), vehicle: Klucel (hydroxypropylcellulose) (HPC), higher = longer survival 92 % of control | endpoint: median survival time, dose: 25.0 mg/kg/injection, schedule: Q01DX009 (ip), vehicle: Klucel (hydroxypropylcellulose) (HPC), higher = longer survival 86 % of control | endpoint: median survival time, dose: 50.0 mg/kg/injection, schedule: Q01DX009 (ip), vehicle: Klucel (hydroxypropylcellulose) (HPC), higher = longer survival 88 % of control and 98 % of control | endpoint: median survival time, dose: 100.0 mg/kg/injection, schedule: Q01DX009 (ip), vehicle: Klucel (hydroxypropylcellulose) (HPC), higher = longer survival 88 % of control

CCN(CC)CCCC(C)Nc1c2ccc(Cl)cc2nc2ccc(OC)cc12 (centres undefined)
inactive: endpoint: median survival time, dose: 8.0 mg/kg/injection, schedule: Q01DX009 (ip), vehicle: saline with Tween-80, higher = longer survival 116 % of control | endpoint: median survival time, dose: 8.0 mg/kg/injection, schedule: Q01DX009 (ip), vehicle: saline, higher = longer survival 96 % of control | endpoint: median survival time, dose: 8.0 mg/kg/injection, schedule: Q01DX009 (ip), vehicle: suspension in saline, higher = longer survival 119 % of control | endpoint: median survival time, dose: 16.0 mg/kg/injection, schedule: Q01DX009 (ip), vehicle: saline with Tween-80, higher = longer survival 96 % of control and 118 % of control | endpoint: median survival time, dose: 16.0 mg/kg/injection, schedule: Q01DX009 (ip), vehicle: saline, higher = longer survival 100 % of control | endpoint: median survival time, dose: 16.0 mg/kg/injection, schedule: Q01DX009 (ip), vehicle: suspension in saline, higher = longer survival 121 % of control | endpoint: median survival time, dose: 32.0 mg/kg/injection, schedule: Q01DX009 (ip), vehicle: saline with Tween-80, higher = longer survival 100 % of control and 108 % of control | endpoint: median survival time, dose: 32.0 mg/kg/injection, schedule: Q01DX009 (ip), vehicle: saline, higher = longer survival 99 % of control | endpoint: median survival time, dose: 32.0 mg/kg/injection, schedule: Q01DX009 (ip), vehicle: suspension in saline, higher = longer survival 116 % of control | endpoint: median survival time, dose: 64.0 mg/kg/injection, schedule: Q01DX009 (ip), vehicle: saline with Tween-80, higher = longer survival 102 % of control and 110 % of control | endpoint: median survival time, dose: 64.0 mg/kg/injection, schedule: Q01DX009 (ip), vehicle: saline, higher = longer survival 95 % of control | endpoint: median survival time, dose: 64.0 mg/kg/injection, schedule: Q01DX009 (ip), vehicle: suspension in saline, higher = longer survival 121 % of control | endpoint: median survival time, dose: 128.0 mg/kg/injection, schedule: Q01DX009 (ip), vehicle: saline with Tween-80, higher = longer survival 102 % of control | endpoint: median survival time, dose: 128.0 mg/kg/injection, schedule: Q01DX009 (ip), vehicle: suspension in saline, higher = longer survival 119 % of control

Cc1c(N)nc(C(CC(N)=O)NCC(N)C(N)=O)nc1C(=O)NC(C(=O)NC(C)C(O)CC(=O)NC(C(=O)NC(OC1OC(C)C(N)C(O)C1O)C(O)c1nc(-c2nc(C(=O)NCCCC(N)CC(=O)NCCCNCCCCN)cs2)cs1)C(C)O)C(OC1OC(CO)C(O)C(O)C1OC1OC(CO)C(O)C(OC(N)=O)C1O)c1cnc[nH]1 (centres undefined)
active: endpoint: median survival time, dose: 1.0 mg/kg/injection, schedule: Q01DX009 (ip), vehicle: saline, higher = longer survival 173 % of control | endpoint: median survival time, dose: 2.0 mg/kg/injection, schedule: Q01DX009 (ip), vehicle: saline, higher = longer survival 174 % of control | endpoint: median survival time, dose: 4.0 mg/kg/injection, schedule: Q01DX009 (ip), vehicle: saline, higher = longer survival 160 % of control

O=c1[nH]c(=O)n(C2CC(O)C(CO)O2)cc1F (centres undefined)
68 % of control: endpoint: median tumor weight (est.), dose: 25.0 mg/kg/injection, schedule: Q01DX009 (ip), vehicle: saline with Tween-80, higher = larger tumour
59 % of control: endpoint: median tumor weight (est.), dose: 50.0 mg/kg/injection, schedule: Q01DX009 (ip), vehicle: saline with Tween-80, higher = larger tumour
49 % of control and 71 % of control: endpoint: median tumor weight (est.), dose: 100.0 mg/kg/injection, schedule: Q01DX009 (ip), vehicle: saline, higher = larger tumour
inactive: endpoint: median survival time, dose: 25.0 mg/kg/injection, schedule: Q01DX009 (ip), vehicle: saline with Tween-80, higher = longer survival 109 % of control | endpoint: median survival time, dose: 100.0 mg/kg/injection, schedule: Q01DX009 (ip), vehicle: saline with Tween-80, higher = longer survival 122 % of control | endpoint: median survival time, dose: 200.0 mg/kg/injection, schedule: Q01DX009 (ip), vehicle: saline with Tween-80, higher = longer survival 120 % of control | endpoint: median survival time, dose: 200.0 mg/kg/injection, schedule: Q04DX003 (ip), vehicle: saline, higher = longer survival 112 % of control
96 % of control and 220 % of control: endpoint: median tumor weight (est.), dose: 50.0 mg/kg/injection, schedule: Q01DX009 (ip), vehicle: saline, higher = larger tumour
41 % of control: endpoint: median tumor weight (est.), dose: 100.0 mg/kg/injection, schedule: Q01DX009 (ip), vehicle: saline with Tween-80, higher = larger tumour
55 % of control: endpoint: median tumor weight (est.), dose: 200.0 mg/kg/injection, schedule: Q01DX009 (ip), vehicle: saline, higher = larger tumour

CO[C@H]1C[C@](C)(O)Cc2cc3c(c(O)c21)C(=O)c1c(O)cc2c(c1C3=O)O[C@@H]1O[C@@]2(C)[C@H](O)[C@@H](N(C)C)[C@@H]1O
inactive: endpoint: median survival time, dose: 6.25 mg/kg/injection, schedule: Q01DX009 (ip), vehicle: other, higher = longer survival 104 % of control | endpoint: median survival time, dose: 12.5 mg/kg/injection, schedule: Q01DX009 (ip), vehicle: other, higher = longer survival 95 % of control
